Assay results reported in patent publication US20250197403A1, “HETEROARYL COMPOUNDS FOR TREATMENT OF COMPLEMENT FACTOR D MEDIATED DISORDERS” (Achillion Pharmaceuticals, Inc., priority 2020, published 2025).
pIC50: −log10 of the molar value.

Each molecule was assayed against Human Factor D (Homo sapiens (Human), UniProt P00746) (assay: Human Factor D Assay). Conditions: Human Factor D 80 nM, substrate Z-L-Lys-SBzl, assay according to Example 3.
Format: biochemical
Description: The assay according to Example 3 was used to determine the IC50's of the compounds. Other standard factor D inhibition assays are also available.
Human Factor D (purified from human serum, Complement Technology, Inc.) at 80 nM final concentration is incubated with test compound at various concentrations for 5 min at room temperature in 50 mM Tris, 1M NaCl, pH 7.5. A synthetic substrate Z-L-Lys-SBzl and DTNB (Ellman's reagent) are added to final concentrations of 100 μM each. Absorbance at 405 nm (A405) is recorded at 30 second intervals for 30 min using a microplate spectrophotometer. IC50 values are calculated by nonlinear regression of complement Factor D reaction rates as a function of test compound concentration.

Chain of Human Factor D (P00746 26-253): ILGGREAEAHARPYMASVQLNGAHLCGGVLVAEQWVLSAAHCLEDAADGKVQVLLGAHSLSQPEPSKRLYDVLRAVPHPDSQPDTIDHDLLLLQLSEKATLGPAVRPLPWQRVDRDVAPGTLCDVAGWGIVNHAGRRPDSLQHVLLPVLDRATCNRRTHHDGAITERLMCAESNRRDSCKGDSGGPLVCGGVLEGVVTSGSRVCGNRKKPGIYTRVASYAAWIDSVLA

Structure (SMILES) | pIC50
CC(=O)c1nn(CC(=O)N2[C@H](C(=O)Nc3nc(Br)ccc3C)C[C@@]3(C)C[C@@H]23)c2cc3c(cc12)-c1cnc(C)nc1C=CC3 [Compound 69, (1R,3S,5R)-2-(2-(11-acet-yl-3-methylpyrimido [4′,5′:6,7]cyclohepta[1,2-f]indazol-9(7H)-yl)acetyl)-N-(6-bromo-3-methylpyr-idin-2-yl)-5-methyl-2-aza-bicyclo[3.1.0]hexane-3-carboxamide] | > 6.00
CC(=O)c1cn(CC(=O)N2[C@H](C(=O)Nc3nc(C(F)(F)F)ccc3Cl)C[C@@]3(C)C[C@@H]23)c2c(C)nc(-c3cnc(C)nc3)cc12 [Compound 42, (1R,3S,5R)-2-(2-(3-acetyl-7-methyl-5-(2-methylpyr-imidin-5-yl)-1H-pyrrolo [2,3-c]pyridin-1-yl)acetyl)-N-(3-chloro-6-(trifluoro-methyl)pyridin-2-yl)-5-methyl-2-azabicyclo[3.1.0] hexane-3-carboxamide] | > 6.00
COCc1ccc(C(F)(F)F)nc1NC(=O)[C@@H]1[C@@H]2C[C@@H]2CN1C(=O)Cn1cc(C(C)=O)c2cc(-c3cnc4cc(C)nn4c3)cc(C)c21 [Compound 7, (1R,2S,5S)-3-(2-(3-acetyl-7-methyl-5-(2-methylpyr-azolo[1,5-a]pyrimidin-6-yl)-1H-indol-1-yl)acetyl)-N-(3-(methoxymethyl)-6-(trifluoromethyl)pyridin-2-yl)-3-azabicyclo[3.1.0] hexane-2-carboxamide] | > 6.00
CC(=O)c1cn(CC(=O)N2[C@H](C(=O)Nc3nc(C(F)(F)F)c(F)cc3C)C[C@@]3(C)C[C@@H]23)c2c(C)cc(-c3ccc4nc(C)nn4c3)cc12 [Compound 19, (1R,3S,5R)-2-(2-(3-acetyl-7-methyl-5-(2-methyl-[1,2,4]triazolo[1,5-a]pyr-idin-6-yl)-1H-indol-1-yl)-acetyl)-N-(5-fluoro-3-methyl-6-(trifluorometh-yl)pyridin-2-yl)-5-methyl-2-azabicyclo[3.1.0]hexane-3-carboxamide] | > 6.00
CC(=O)c1cn(CC(=O)N2[C@H](C(=O)Nc3nc(Br)ccc3C)C[C@@]3(C)C[C@@H]23)c2ccc(NC3(C)COC3)cc12 [Compound 26, (1R,3S,5R)-2-(2-(3-acetyl-5-((3-methyloxetan-3-yl)-amino)-1H-indol-1-yl)-acetyl)-N-(6-bromo-3-methylpyridin-2-yl)-5-methyl-2-azabicyclo[3.1.0] hexane-3-carboxamide] | > 6.00
CC(=O)c1nn(CC(=O)N(C)[C@@H](C)C(=O)Nc2nc(Br)ccc2C)c2cc3c(cc12)-c1cnc(C)nc1CC=C3 [Compound 109, (S)-2-(2-(11-acetyl-3-methylpyrimido[4′,5′:6,7]cyclohepta[1,2-f]indazol-9(5H)-yl)-N-methylacetamido)-N-(6-bromo-3-methylpyridin-2-yl)propanamide] | > 6.00
CC(=O)c1cn(CC(=O)N2[C@H](C(=O)Nc3nc(C(F)(F)F)ccc3C#N)C[C@@]3(C)C[C@@H]23)c2c(C)cc(-c3cnc4cc(C)nn4c3)cc12 [Compound 14, (1R,3S,5R)-2-(2-(3-acetyl-7-methyl-5-(2-methylpyr-azolo[1,5-a]pyrimidin-6-yl)-1H-indol-1-yl)acetyl)-N-(3-cyano-6-(trifluoro-methyl)pyridin-2-yl)-5-methyl-2-azabicyclo[3.1.0] hexane-3-carboxamide] | > 6.00
CC(=O)c1cn(CC(=O)N2[C@H](C(=O)Nc3nc(C(F)(F)F)cc(F)c3C)C[C@@]3(C)C[C@@H]23)c2c(C)cc(-c3cnc(C)nc3)cc12 [Compound 54, (1R,3S,5R)-2-(2-(3-acetyl-7-methyl-5-(2-methylpyr-imidin-5-yl)-1H-indol-1-yl)acetyl)-N-(4-fluoro-3-methyl-6-(trifluorometh-yl)pyridin-2-yl)-5-methyl-2-azabicyclo[3.1.0]hexane-3-carboxamide] | > 6.00
CC(=O)c1cn(CC(=O)N2[C@H](C(=O)Nc3ccn(CC(F)(F)F)n3)C[C@@]3(C)C[C@@H]23)c2c(C)cc(-c3ccc4nc(C)nn4c3)cc12 [Compound 65, (1R,3S,5R)-2-(2-(3-acetyl-7-methyl-5-(2-methyl-[1,2,4]triazolo[1,5-a]pyr-idin-6-yl)-1H-indol-1-yl)-acetyl)-5-methyl-N-(1-(2,2,2-trifluoroethyl)-1H-pyrazol-3-yl)-2-azabicyclo [3.1.0]hexane-3-carbox-amide] | > 6.00
CC(=O)c1cn(CC(=O)N2C[C@H](F)C[C@H]2C(=O)N[C@H](C)C(F)=C(C)C)c2c(C)cc(-c3cnc4cc(C)nn4c3)cc12 [Compound 34, (2S,4R)-1-(2-(3-acetyl-7-methyl-5-(2-methylpyr-azolo[1,5-a]pyrimidin-6-yl)-1H-indol-1-yl)acetyl)-4-fluoro-N-((R)-3-fluoro-4-methylpent-3-en-2-yl)-pyrrolidine-2-carboxamide] | > 6.00
CC(=O)c1cn(CC(=O)N2[C@H](C(=O)Nc3nc(C(F)(F)F)ccc3C)C[C@@]3(C)C[C@@H]23)c2c(C)cc(-c3cnc4cc(C#N)nn4c3)cc12 [Compound 13, (1R,3S,5R)-2-(2-(3-acetyl-5-(2-cyanopyrazolo[1,5-a]pyrimidin-6-yl)-7-methyl-1H-indol-1-yl)acetyl)-5-methyl-N-(3-methyl-6-(trifluoromethyl)pyridin-2-yl)-2-azabicyclo[3.1.0] hexane-3-carboxamide] | > 6.00
CC(=O)c1cn(CC(=O)N2[C@H](C(=O)N[C@@H](C)C(F)=C(C)C)C[C@@]3(C)C[C@@H]23)c2c(C)cc(-c3cnc(C)nc3)cc12 [Compound 31, (1R,3S,5R)-2-(2-(3-acetyl-7-methyl-5-(2-methylpyr-imidin-5-yl)-1H-indol-1-yl)acetyl)-N-((S)-3-fluoro-4-methylpent-3-en-2-yl)-5-methyl-2-azabicyclo[3.1.0] hexane-3-carboxamide] | > 6.00
COCc1ccc(C(F)(F)F)nc1NC(=O)[C@@H]1C[C@@]2(C)C[C@H]2N1C(=O)Cn1cc(C(C)=O)c2cc(-c3ccc4nc(C)nn4c3)cc(C)c21 [Compound 40, (1R,3S,5R)-2-(2-(3-acetyl-7-methyl-5-(2-methyl-[1,2,4]triazolo[1,5-a]pyr-idin-6-yl)-1H-indol-1-yl)-acetyl)-N-(3-(methoxy-methyl)-6-(trifluorometh-yl)pyridin-2-yl)-5-methyl-2-azabicyclo[3.1.0]hexane-3-carboxamide] | > 6.00
CC(=O)c1cn(CC(=O)N2C[C@H]3C[C@H]3[C@H]2C(=O)N[C@@H](C)C(F)=C(C)C)c2c(C)cc(-c3cnc4cc(C)nn4c3)cc12 [Compound 38, (1R,2S,5S)-3-(2-(3-acetyl-7-methyl-5-(2-methylpyr-azolo[1,5-a]pyrimidin-6-yl)-1H-indol-1-yl)acetyl)-N-((S)-3-fluoro-4-methyl-pent-3-en-2-yl)-3-azabi-cyclo[3.1.0]hexane-2-car-boxamide] | > 6.00
CC(=O)c1cn(CC(=O)N2[C@H](C(=O)Nc3nc(Br)ccc3C3CC3)C[C@@]3(C)C[C@@H]23)c2c(C)cc(-c3cnc4cc(C)nn4c3)cc12 [Compound 8, (1R,3S,5R)-2-(2-(3-acetyl-7-methyl-5-(2-methylpyr-azolo[1,5-a]pyrimidin-6-yl)-1H-indol-1-yl)acetyl)-N-(6-bromo-3-cycloprop-ylpyridin-2-yl)-5-methyl-2-azabicyclo[3.1.0]hexane-3-carboxamide] | < 5.00
CC(=O)c1cn(CC(=O)N2[C@H](C(=O)Nc3nc(Br)ccc3Cl)C[C@@]3(C)C[C@@H]23)c2c(C)nc(-c3cnc(C)nc3)cc12 [Compound 21, (1R,3S,5R)-2-(2-(3-acetyl-7-methyl-5-(2-methylpyr-imidin-5-yl)-1H-pyrrolo [2,3-c]pyridin-1-yl)acetyl)-N-(6-bromo-3-chloropyr-idin-2-yl)-5-methyl-2-aza-bicyclo[3.1.0]hexane-3-carboxamide] | > 6.00
CC(=O)c1cn(CC(=O)N2[C@H](C(=O)Nc3nc(C(F)(F)F)ccc3C)C[C@@]3(C)C[C@@H]23)c2c(C)nc(-c3cnc4cc(C)nn4c3)cc12 [Compound 55, (1R,3S,5R)-2-(2-(3-acetyl-7-methyl-5-(2-methylpyr-azolo[1,5-a]pyrimidin-6-yl)-1H-pyrrolo[2,3-c]pyr-idin-1-yl)acetyl)-5-methyl-N-(3-methyl-6-(trifluoro-methyl)pyridin-2-yl)-2-azabicyclo[3.1.0]hexane-3-carboxamide] | > 6.00
CC(=O)c1cn(CC(=O)N2[C@H](C(=O)N[C@@H](C)C(F)=C(C)C)C[C@@]3(C)C[C@@H]23)c2c(C)nc(-c3cnc(C)nc3)cc12 [Compound 39, (1R,3S,5R)-2-(2-(3-acetyl-7-methyl-5-(2-methylpyr-imidin-5-yl)-1H-pyrrolo [2,3-c]pyridin-1-yl)acetyl)-N-((S)-3-fluoro-4-methyl-pent-3-en-2-yl)-5-methyl-2-azabicyclo[3.1.0]hexane-3-carboxamide] | > 6.00
CC(=O)c1cn(CC(=O)N2[C@H](C(=O)Nc3nc(Br)ccc3Cl)C[C@@]3(C)C[C@@H]23)c2c(C)cc(-c3cnc(C)nc3)cc12 [Compound 68, (1R,3S,5R)-2-(2-(3-acetyl-7-methyl-5-(2-methylpyr-imidin-5-yl)-1H-indol-1-yl)acetyl)-N-(6-bromo-3-chloropyridin-2-yl)-5-methyl-2-azabicyclo[3.1.0] hexane-3-carboxamide] | > 6.00
CC(=O)c1cn(CC(=O)N2[C@H](C(=O)Nc3ccn(CC(F)(F)F)n3)C[C@@]3(C)C[C@@H]23)c2c(C)cc(-c3cnc4cc(C)nn4c3)cc12 [Compound 64, (1R,3S,5R)-2-(2-(3-acetyl-7-methyl-5-(2-methylpyr-azolo[1,5-a]pyrimidin-6-yl)-1H-indol-1-yl)acetyl)-5-methyl-N-(1-(2,2,2-tri-fluoroethyl)-1H-pyrazol-3-yl)-2-azabicyclo[3.1.0] hexane-3-carboxamide] | > 6.00
